Consider 22 compounds from patent publication US9382188B2, “Aromatic ring compound” (TAKEDA PHARMACEUTICAL COMPANY LIMITED, priority 2012, dated 2016).

Molecules are shown by their SMILES.

T1 sequence (O14842 whole entry): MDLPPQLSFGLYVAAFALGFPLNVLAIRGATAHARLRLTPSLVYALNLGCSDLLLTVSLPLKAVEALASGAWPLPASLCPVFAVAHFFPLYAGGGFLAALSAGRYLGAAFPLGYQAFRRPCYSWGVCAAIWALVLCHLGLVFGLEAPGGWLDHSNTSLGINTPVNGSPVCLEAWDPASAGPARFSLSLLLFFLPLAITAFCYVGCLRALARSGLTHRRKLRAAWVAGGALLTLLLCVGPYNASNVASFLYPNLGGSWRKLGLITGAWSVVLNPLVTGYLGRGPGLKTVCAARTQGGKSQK

This test has as its target T1, human GPR40 (Homo sapiens, UniProt O14842).
T1 construct: expressed in transfected cells
Kind of test: Evaluation of human GPR40 agonist activity with increase in intracellular Ca2+ concentration as an index (FLIPR Tetra). The conditions noted are these: test compound 1 μM; CHO(dhfr-) cells stably expressing human GPR40; 100% = activity of 1 μM WO2009/048527 Example 99.2, 0% = DMSO. Type of test: cell-based. The procedure:
Evaluation of human GPR40 agonist activity with increase in intracellular Ca^2+ concentration as an index
CHO(dhfr-) cells that stably expressed human GPR40 were suspended in MEMα (Nikken Bio Medical Laboratory) containing 10% dialysis serum (GEMINI BIO-PRODUCTS), 10 mM HEPES (Invitrogen), 100 U/mL penicillin, 100 μg/mL streptomycin (Invitrogen), and plated on a 384 well black/clear cell culture plate at 10,000 cells/well. After culture overnight in a CO2 incubator at 37° C., the culture supernatant was removed, and a loading buffer [dye attached to Calcium 5 Assay Kit (Molecular Devices) was dissolved in an assay buffer (20 mM HEPES, 0.2% fatty acid-free BSA (Sigma-Aldrich), 2.5 mM probenecid (DOJINDO)-containing HBSS (Invitrogen)) added with 0.025% Cremophor EL (DOJINDO)] was added at 37.5 μL/well. After incubation in a CO2 incubator at 37° C. for 1 hr, the cells were stood at room temperature for 15 min, an assay buffer containing the test compound at a final concentration of 1 μM was added at 12.5 μL/well in FLIPR Tetra (Molecular Devices), and the fluorescence amount was successively measured. Human GPR40 agonist activity calculated using an increase in the intracellular Ca^2+ concentration as an index, wherein the activity of 1 μM of the compound described in WO 2009/048527 (WO2009/048527 Example 99.2) was 100%, and the activity when DMSO was added instead of the test compound was 0%.
With `COc1ccc(F)c(-c2ccc(OCc3cccc(C(CC(=O)O)C4CC4)c3)cc2CCC(C)(C)OC)c1` (stereo not shown) [Example 92, 3-cyclopropyl-3-(3-(((2′-fluoro-5′-methoxy-2-(3-methoxy-3-methylbutyl)biphenyl-4-yl)oxy)methyl)phenyl)propanoic acid], the activation at 1 µM was determined as 113%.

In the case of `COc1ccc(F)c(-c2ccc(OCc3cccc(C(CC(=O)O)C4CCCC4)c3)cc2CC(C)(C)C)c1` (stereo not shown) [Example 39, 3-cyclopentyl-3-(3-(((2-(2,2-dimethylpropyl)-2′-fluoro-5′-methoxybiphenyl-4-yl)oxy)methyl)phenyl)propanoic acid], the activation at 1 µM turned out to be 105%.

As to `COc1ccc(F)c(-c2ccc(OCc3cccc(C(CC(=O)O)C4CC4)c3)cc2-c2nnc(C(F)(F)F)s2)c1` (stereo not shown) [Example 75, 3-cyclopropyl-3-(3-(((2′-fluoro-5′-methoxy-2-(5-(trifluoromethyl)-1,3,4-thiadiazol-2-yl)-[1,1′-biphenyl]-4-yl)oxy)methyl)phenyl)propanoic acid], the activation at 1 µM was 91%.

Turning to `COc1ccc(F)c(-c2ccc(OCc3cc(C(CC(=O)O)C4CC4)ncn3)cc2CC(C)(C)C)c1` (stereo not shown) [Example 31, 3-cyclopropyl-3-(6-(((2-(2,2-dimethylpropyl)-2′-fluoro-5′-methoxybiphenyl-4-yl)oxy)methyl)pyrimidin-4-yl)propanoic acid], the activation at 1 µM is 108%.

With `COc1ccc(F)c(-c2ccc(OCc3cccc(C(CC(=O)O)C4CC4)c3)cc2CC(C)(C)C)c1` (stereo not shown) [Example 3, 3-cyclopropyl-3-(3-(((2-(2,2-dimethylpropyl)-2′-fluoro-5′-methoxybiphenyl-4-yl)oxy)methyl)phenyl)propanoic acid], the activation at 1 µM was found to be 103%.

In the case of `COc1ccc(F)c(-c2ncc(OCc3cccc(C(CC(=O)O)C4CC4)c3)cc2CC(C)(C)C)c1` (stereo not shown) [Example 22, 3-cyclopropyl-3-(3-(((5-(2,2-dimethylpropyl)-6-(2-fluoro-5-methoxyphenyl)pyridin-3-yl)oxy)methyl)phenyl)propanoic acid], the activation at 1 µM turned out to be 99%.

Take `COc1ccc(F)c(-c2ccc(OCc3cccc(C(CC(=O)O)C4CC4)c3)cc2CCC(C)(C)C)c1` (stereo not shown) [Example 93, 3-cyclopropyl-3-(3-(((2-(3,3-dimethylbutyl)-2′-fluoro-5′-methoxybiphenyl-4-yl)oxy)methyl)phenyl)propanoic acid]: the activation at 1 µM came to 106%.

In the case of `COc1ccc(-c2ncc(OCc3cccc(C(CC(=O)O)C4CC4)c3)cc2CC(C)(C)C)cc1` (stereo not shown) [Example 48, 3-cyclopropyl-3-(3-(((5-(2,2-dimethylpropyl)-6-(4-methoxyphenyl)pyridin-3-yl)oxy)methyl)phenyl)propanoic acid], the activation at 1 µM was -1%.

With `CCC(CC)(CC)Cc1cc(OCc2cccc(C(CC(=O)O)C3CC3)c2)ccc1-c1cc(OC)ccc1F` (stereo not shown) [Example 111, 3-cyclopropyl-3-(3-(((2-(2,2-diethylbutyl)-2′-fluoro-5′-methoxybiphenyl-4-yl)oxy)methyl)phenyl)propanoic acid], the activation at 1 µM amounted to 111%.

Turning to `CC(C)(C)Cc1cc(OCc2cccc(C(CC(=O)O)C3CC3)c2)cnc1-c1cccc(C(F)(F)F)c1` (stereo not shown) [Example 52, 3-cyclopropyl-3-(3-(((5-(2,2-dimethylpropyl)-6-(3-(trifluoromethyl)phenyl)pyridin-3-yl)oxy)methyl)phenyl)propanoic acid], the activation at 1 µM was found to be 14%.

With `COc1ccc(F)c(-c2ccc(OCc3cccc(OCC(=O)O)c3)cc2CC(C)(C)C)c1` [Example 2, (3-(((2-(2,2-dimethylpropyl)-2′-fluoro-5′-methoxybiphenyl-4-yl)oxy)methyl)phenoxy)acetic acid], the activation at 1 µM was 108%.

With `COc1ccc(F)c(-c2ccc(OCc3cccc(C(CC(=O)O)C4CC4)c3)cc2-c2ccc(C#N)s2)c1` (stereo not shown) [Example 28, 3-(3-(((2-(5-cyano-2-thienyl)-2′-fluoro-5′-methoxybiphenyl-4-yl)oxy)methyl)phenyl)-3-cyclopropylpropanoic acid], the activation at 1 µM was 95%.

Regarding `COc1ccc(F)c(-c2ccc(SCc3cccc(C(CC(=O)O)C4CC4)c3)cc2CC(C)(C)C)c1` (stereo not shown) [Example 12, 3-cyclopropyl-3-(3-(((2-(2,2-dimethylpropyl)-2′-fluoro-5′-methoxybiphenyl-4-yl)sulfanyl)methyl)phenyl)propanoic acid], the activation at 1 µM was determined as 113%.

For the compound `COc1ccc(F)c(-c2ccc(OCc3cccc(C(CC(=O)O)C4CC4)c3)cc2OCC(C)(C)C)c1` (stereo not shown) [Example 38, 3-cyclopropyl-3-(3-(((2-(2,2-dimethylpropoxy)-2′-fluoro-5′-methoxybiphenyl-4-yl)oxy)methyl)phenyl)propanoic acid], the activation at 1 µM came to 111%.

Take `COc1ccc(F)c(-c2ccc(OCc3cccc(C(CC(=O)O)C4CC4)c3)cc2CC2(C#N)CCCC2)c1` (stereo not shown) [Example 41, 3-(3-(((2-((1-cyanocyclopentyl)methyl)-2′-fluoro-5′-methoxybiphenyl-4-yl)oxy)methyl)phenyl)-3-cyclopropylpropanoic acid]: the activation at 1 µM was 101%.

In the case of `COc1ccc(F)c(-c2ccc(OCc3cccc(C(CC(=O)O)C4CC4C#N)c3)cc2CC(C)(C)C)c1` (stereo not shown) [Example 90, 3-(2-cyanocyclopropyl)-3-(3-(((2′-fluoro-5′-methoxy-2-neopentyl-[1,1′-biphenyl]-4-yl)oxy)methyl)phenyl)propanoic acid], the “Human GPR40 agonist activity (increase in intracellular Ca2+ concentration)” value is 107%.

Consider `COc1cc(OC)cc(-c2ncc(OCc3cccc(C(CC(=O)O)C4CC4)c3)cc2CC(C)(C)C)c1` (stereo not shown) [Example 56, 3-cyclopropyl-3-(3-(((6-(3,5-dimethoxyphenyl)-5-(2,2-dimethylpropyl)pyridin-3-yl)oxy)methyl)phenyl)propanoic acid], for which the activation at 1 µM turned out to be 31%.

With `COc1ccccc1-c1ncc(OCc2cccc(C(CC(=O)O)C3CC3)c2)cc1CC(C)(C)C` (stereo not shown) [Example 50, 3-cyclopropyl-3-(3-(((5-(2,2-dimethylpropyl)-6-(2-methoxyphenyl)pyridin-3-yl)oxy)methyl)phenyl)propanoic acid], the activation at 1 µM came out at 9%.

Take `CCC(C)(C)C(F)c1cc(OCc2cccc(C(CC(=O)O)C3CC3)c2)ccc1-c1cc(OC)ccc1F` (stereo not shown) [Example 107, 3-cyclopropyl-3-(3-(((2′-fluoro-2-(1-fluoro-2,2-dimethylbutyl)-5′-methoxybiphenyl-4-yl)oxy)methyl)phenyl)propanoic acid]: the activation at 1 µM stood at 126%.

On to `Cc1cccc(-c2ncc(OCc3cccc(C(CC(=O)O)C4CC4)c3)cc2CC(C)(C)C)c1` (stereo not shown) [Example 47, 3-cyclopropyl-3-(3-(((5-(2,2-dimethylpropyl)-6-(3-methylphenyl)pyridin-3-yl)oxy)methyl)phenyl)propanoic acid], for which the activation at 1 µM worked out at 92%.

On to `CCCCCOc1ccc(F)c(-c2ncc(OCc3cccc(C(CC(=O)O)C4CC4)c3)cc2CC(C)(C)C)c1` (stereo not shown) [Example 71, 3-cyclopropyl-3-(3-(((5-(2,2-dimethylpropyl)-6-(2-fluoro-5-(pentyloxy)phenyl)pyridin-3-yl)oxy)methyl)phenyl)propanoic acid], for which the activation at 1 µM came out at 1%.

For the compound `CC(C)(C)Cc1cc(OCc2cccc(C(CC(=O)O)C3CC3)c2)cnc1-c1cc(OC2CCCCO2)ccc1F` (stereo not shown) [Example 44, 3-cyclopropyl-3-(3-(((5-(2,2-dimethylpropyl)-6-(2-fluoro-5-(tetrahydro-2H-pyran-2-yloxy)phenyl)pyridin-3-yl)oxy)methyl)phenyl)propanoic acid], the activation at 1 µM amounted to 3%.
